According to US10668134B2, “Dental pretreatment material and dental tissue regeneration kit” (National Center for Geriatrics and Gerontology, priority 2016, dated 2020):

What was measured:
[1] = test system: Eleventh-passage human periodontal membrane cells; assay: Migratory capacity of senescent cells of human periodontal membrane (TAXIscan-FL, SDF1 gradient); assay type: cell-based; conditions: 48 hours, n=4, control 53.8 ± 4.6
Protocol: Eleventh-passage human periodontal membrane cells were plated in DMEM containing 10% FBS in collagen-coated 35 mm dishes (IWAKI) at a density of 2×10^4 cells/ml. After 20 hours, an ALK5 inhibitor (SB431542) was added to a final concentration of 10 ng/μl. Further, a CCR3 antagonist (SB328437) was added to a final concentration of 5 ng/μl. After 48 hours, the cells were detached, and Real-time horizontal chemotaxis analysis was performed using TAXIscan-FL (Effector Cell Institute, Tokyo) so as to measure the migratory capacity. Specifically, channels optimized (8 μm) for the size of cells are formed between a silicon plate having 6 μm pores and a glass plate, and 1 μl of treated periodontal membrane cells (10^5 cells/ml) was injected to one end portion of an associated one of the channels (n=4). Then, 1 μl of 10 ng/μl SDF1 was placed on the opposite side portion so as to form a certain constant concentration gradient. Based on the video images of migration, the number of migrating cells after 12 hours was measured.

[2] = test system: Eleventh-passage human periodontal ligament cells; assay: Senescence marker expression in senescent cells of human periodontal membrane (real-time RT-PCR); assay type: cell-based; conditions: 48 hours; for IL1β senescence marker expression / IL6 senescence marker expression / IL8 senescence marker expression / p16 senescence marker expression / p53 senescence marker expression: control = 1
Protocol: (§1) Eleventh-passage human periodontal ligament cells were plated in DMEM containing 10% FBS in collagen-coated 35 mm dishes (IWAKI) at a density of 2×10^4 cells/ml. After 20 hours, ALK5 inhibitor (SB431542) was added to final concentrations of 5 ng/μl and 10 ng/μl. Further, CCR3 antagonist (SB328437) was added to final concentrations of 5 ng/μl and 10 ng/μl. After 48 hours, mRNA was extracted, and real-time RT-PCR was performed on senescence markers, namely p16, p53, IL6, IL1b, IL8, and TNFα (Table 4).

[3] = test system: HUVECs (Human Umbilical Vein Endothelial Cells); assay: Blood vessel-inducing capacity of culture supernatant of senescent dental pulp stem cells on HUVECs on matrigel; assay type: cell-based; conditions: after 5 hours, DPSC CM alone 5.9 ± 2.9 mm
Protocol: Non-separated 22nd-passage human dental pulp stem cells were brought into a state of 50% confluence. The medium was replaced with a serum-free medium. After 24 hours, the culture conditioned medium was collected. The supernatant was concentrated approximately 40-fold using Amicon Ultra-15 Centrifugal Filter Unit with Ultracel-3 membrane (Millipore, Billerica, Mass.) with 3-kDa molecular cut. Proteinase inhibitors (Halt™ proteinase inhibitor cocktail EDTA-free, Thermo Scientific, Rockford, Ill., USA) was added. The mixture was dispended to be stored at −80° C. Protein content was measured using Bradford Ultra™ (Expedeon, Cambridge, UK).
HUVECs (Human Umbilical Vein Endothelial Cells) (clone 7F3415) (Lonza) were cultured with EGM 2 containing 10% FBS (Lonza). Thereafter, the culture supernatant (5 μg/ml proteins) prepared in 1 above was added to DMEM, as a blood vessel-inducing medium, containing 2% FBS, 5 μg/ml heparin (Lonza), 5 μg/ml ascorbic acid (Lonza), and 5 μg/ml hydrocortisone (Lonza). Further, an ALK5 inhibitor (SB431542, 10 ng/μl) was added to a part of the resultant mixture, and a CCR3 antagonist (SB328437, 5 ng/μl) was added to another part of the resultant mixture. […] Quantitative measurement was conducted, using Suite V3 software (Leica), on the length of a formed cord or tubular lumen.

[4] = test system: post-pulpectomy root canal of a tooth of the canine; assay: Dental pulp regeneration after pulpectomy, allogeneic transplantation of dental pulp stem cells with root canal filler containing ALK5 inhibitor or CCR3 antagonist; assay type: in vivo, dog
Description: For each tooth, the root canal was enlarged with #50-55 to the apex, and was washed alternately with a 5% sodium hypochlorite solution and a 3% hydrogen peroxide solution, followed by washing with physiologic saline. The root canal was completely dried with paper points, and hemorrhage was controlled. The root canal was completely closed with a temporary seal of cement and resin. After 7 to 14 days following the pulpectomy, the temporary seal was removed, and the root canal underwent alternate washing and with physiologic saline. Smearclean was then allowed to react for 2 minutes. The root canal was then further washed with physiologic saline, and dried. A root canal filler was prepared by suspending 1×10^6 allogenic dental pulp stem cells, which had been membrane-separated, in 40 μl of a scaffold (Koken Atelocollagen Implant, KOKEN CO., LTD.), and by suspending 3 μl of a 100 μg/ml G-CSF (NEUTROGIN, Chugai Pharmaceutical Co., Ltd.). Further, an ALK5 inhibitor (SB431542, 200 ng) was added to part of the root canal filler. A CCR3 antagonist (SB328437, 200 ng) was added to another part of the root canal filler. The root canal filler with the ALK5 inhibitor or the CCR3 antagonist was injected into associated root canal such that no air bubbles were involved. A hemostatic gelatin sponge (Spongel) was put on the root canal filler. The cavity was completely sealed with cement and resin. After 14 days and 60 days following the transplantation, the teeth were extracted. According to a common method, 5 μm paraffin sections of longitudinal cross section were prepared. The paraffin sections were then H-E stained to undergo morphological observation. Amounts of regenerated dental pulp of four sections were measured for each sample, and an average amount of three samples (14-day samples) or an average amount of four samples (60-day samples) was determined to be the amount of regenerated dental pulp of the respective sample. To analyze angiogenesis, the 60-day samples were immunostained with BS-1 lectin. To analyze neurite outgrowth, the 60-day samples were immunostained with PGP 9.5.

[5] = test system: Eleventh-passage human periodontal ligament cells; assay: Trophic factor expression in senescent cells of human periodontal membrane (real-time RT-PCR); assay type: cell-based; conditions: control = 1
Protocol: as §1
Real-time RT-PCR was performed on trophic factors, namely, VEGF, BDNF, NGF, MCP1 (Table below) using mRNA similar to that described in 2 above.

[6] = canine of middle or advanced age, 200 ng in root canal filler, after 14 days, vs filler without
[7] = canine of middle or advanced age, 200 ng in root canal filler, after 60 days, vs filler without
[8] = canine of middle or advanced age, 200 ng, after 60 days

Structure (SMILES)	IL1β senescence marker expression ([2]; 5 ng/μl)	IL6 senescence marker expression ([2]; 5 ng/μl)	IL8 senescence marker expression ([2]; 5 ng/μl)	p16 senescence marker expression ([2]; 5 ng/μl)	p53 senescence marker expression ([2]; 5 ng/μl)	IL1β senescence marker expression ([2]; 10 ng/μl)	IL6 senescence marker expression ([2]; 10 ng/μl)	IL8 senescence marker expression ([2]; 10 ng/μl)	p16 senescence marker expression ([2]; 10 ng/μl)	p53 senescence marker expression ([2]; 10 ng/μl)	amount of regenerated dental pulp tissue [4, 6]	amount of regenerated dental pulp tissue [4, 7]	BDNF trophic factor expression ([5]; 5 ng/μl)	MCP1 trophic factor expression ([5]; 5 ng/μl)	NGF trophic factor expression ([5]; 5 ng/μl)	VEGF trophic factor expression ([5]; 5 ng/μl)	BDNF trophic factor expression ([5]; 10 ng/μl)	MCP1 trophic factor expression ([5]; 10 ng/μl)	NGF trophic factor expression ([5]; 10 ng/μl)	VEGF trophic factor expression ([5]; 10 ng/μl)	further results
COC(=O)[C@H](Cc1ccc([N+](=O)[O-])cc1)NC(=O)c1cccc2ccccc12 [CCR3 antagonist, SB328437]	0.09	0.09	0.12	0.14	0.56	0.31	0.20	0.26	0.30	0.92	significant increase	significant increase	0.33	2.35	0.50	0.92	0.43	0.54	0.58	0.70	number of migrating cells after 12 hours, Average ± SD ([1]; final concentration 5 ng/μl): 23.3 ± 10.7; Length of New Blood Vessel ([3]; DPSC CM + 5 ng/μl): 2.8 ± 0.3 mm; neurite outgrowth (PGP 9.5) [4, 8]: significant increase; amount of regenerated dental pulp tissue ([4]; canine of young age, 200 ng, after 14 days): did not cause any significant increase
NC(=O)c1ccc(-c2nc(-c3ccc4c(c3)OCO4)c(-c3ccccn3)[nH]2)cc1 [ALK5 inhibitor, SB431542]	0.16	0.20	0.15	0.36	0.92	0.03	0.04	0.04	0.10	0.50	significant increase	significant increase	0.44	1.08	0.58	0.96	0.47	0.96	0.44	1.25	number of migrating cells after 12 hours, Average ± SD ([1]; final concentration 10 ng/μl): 21.3 ± 10.9; TNFα mRNA expression ([2]; 5 ng/μl and 10 ng/μl added): significantly suppressed; Length of New Blood Vessel ([3]; DPSC CM + 10 ng/μl): 13.2 ± 2.6 mm; density of angiogenesis (BS-1 lectin) [4, 8]: significant increase
